Measured values: ChEMBL document CHEMBL2010678, “Tigliane diterpene esters with IFN γ-inducing activity from the leaves of Aleurites fordii” (Bioorg Med Chem Lett, 2012)
Calls of active or inactive are those of the source. The calls are words filed in the database; no cut-off is given here.

Tests used:
Assay type in all cases: functional, cell-based
NK92 [1] = assay: Immunomodulatory activity in human NK92 cells assessed as induction of IFNgamma at 4 nM after 12 hrs by ELISA
NK92 [2] = assay: Immunomodulatory activity in human NK92 cells assessed as induction of IFNgamma at 40 nM after 12 hrs by ELISA
NK92 [3] = assay: Immunomodulatory activity in human NK92 cells assessed as induction of IFNgamma after 12 hrs by ELISA

Structure (SMILES) | Activity (NK92 [1]) | Activity (NK92 [3]) | other results
CCCCCCCCCCCCCCCC(=O)O[C@@H]1[C@@H](C)[C@@]2(O)[C@@H](C=C(CO)C[C@]3(O)C(=O)C(C)=C[C@@H]23)[C@H]2[C@]1(OC(C)=O)[C@@]2(C)CO | Active | – | –
CCCCCCCCCCCCCCCC(=O)O[C@@H]1[C@@H](C)[C@@]2(O)[C@@H](C(=O)C(CO)=C[C@]3(O)C(=O)C(C)=C[C@@H]23)[C@H]2[C@]1(OC(C)=O)[C@@]2(C)CO | – | – | Activity (NK92 [2]): Active
CCCCCCCCCCCCCC(=O)O[C@@H]1[C@@H](C)[C@@]2(O)[C@@H](C=C(CO)C[C@]3(O)C(=O)C(C)=C[C@@H]23)[C@@H]2C(C)(C)[C@]12OC(C)=O | – | Active | –
CCCCCCCCCCCCCCCC(=O)O[C@@H]1[C@@H](C)[C@@]2(O)[C@@H](C(=O)C(CO)=C[C@]3(O)C(=O)C(C)=C[C@@H]23)[C@@H]2C(C)(C)[C@]12OC(C)=O | – | inactive | –
CCCCCCCCCCCCCCCC(=O)O[C@@H]1[C@@H](C)[C@]2(O)[C@@H]3C=C(C)C(=O)[C@@H]3CC(CO)=C[C@H]2[C@H]2[C@]1(OC(C)=O)[C@@]2(C)CO | – | inactive | –
CCCCCCCCCCCCCCCC(=O)O[C@@H]1[C@@H](C)[C@@]2(O)[C@@H](C=C(CO)C[C@]3(O)C(=O)C(C)=C[C@@H]23)[C@@H]2C(C)(C)[C@]12OC(C)=O | Active | – | –
